# Measurements published in patent US20180185374A1, “INHIBITORS OF MTOR KINASE AS ANTI-VIRAL AGENTS” (THE TRUSTEES OF PRINCETON UNIVERSITY, priority 2009, published 2018).
# Experiments:
# 4EBP1 = 4EBP1 phosphorylation in HCMV-infected fibroblasts, Western blot; assay type: cell-based, human; details: rapamycin 20 nM, Torin1 250 nM; 3 PFU/cell
# Method: FIG. 4. Rapamycin-resistant mTOR activity is required for 4EBP1 phosphorylation and eIF4F complex integrity during HCMV infection. Serum-starved confluent human fibroblasts were infected with HCMV at a multiplicity of 3 PFU/cell. […] (A) At 48 hpi the phosphorylation status of mTORC1 targets was assessed by Western blot assay by using antibodies to phosphorylated targets (4EBP1-PT^37/46 and rpS6-PS^235/6) and total proteins. Tubulin was assayed as a loading control. (B) Same as above (A) except that cells were harvested at the indicated times. (C and D) After mock infection (M) or infection with HCMV (WT) at a multiplicity of 3 PFU/cell, cultures were harvested at the indicated times. Equivalent amounts of protein from each sample were incubated with m^7GTP-Sepharose, and the isolated protein complexes were analyzed by Western blotting using the indicated antibodies to the eIF4F complex and 4EBP1. In all cases the results are representative of at least two independent experiments. lys, lysate.
# HCMV infection induces mTORC1 activity, but the phosphorylation of mTORC1 targets is differentially sensitive to the mTORC1 inhibitor rapamycin. […] Total 4EBP1, rpS6, and tubulin levels were monitored to control for protein recovery. […]
# rpS6 = rpS6 phosphorylation in MCMV-infected MEFs, Western blot; assay type: cell-based, mouse; details: 48 hpi; rapamycin 20 nM, Torin1 250 nM, LY294002 20 μM
# Method: FIG. 5. […] Fresh serum-free medium containing drugs was added every other day. At the indicated times, cell-free supernatants were harvested, and the amount of virus in the supernatant was quantified by the TCID50 method. Error bars represent the standard errors of the means form two independent experiments performed in duplicate. […] At 48 hpi the phosphorylation state of the indicated mTORC1 targets was analyzed by a Western blot assay by using antibodies to phosphorylated targets (4EBP1-PT^37/46 and rpS6-PS^235/6) and total proteins. The results are representative of three independent experiments.
# The identification of the functional roles of proteins in the mTOR signaling pathway has been facilitated by the generation of knockout mouse strains lacking individual mTOR components. For example, the availability of murine embryonic fibroblasts (MEFs) lacking the essential mTORC2 component Rictor led to the definitive identification of mTORC2 as the kinase complex responsible for the complete activation of Akt. We used murine cytomegalovirus (MCMV) and several MEF lines deficient for mTOR signaling pathway components to test for a possible contribution of mTORC2 to rapamycin-resistant phosphorylation events. […] Also as observed for HCMV (FIG. 4A), MCMV infection induced mTORC1 activity, as measured by the increased phosphorylation of rpS6. […]
smiles,measurement,setting,value
CCC(=O)N1CCN(c2ccc(-n3c(=O)ccc4cnc5ccc(-c6cnc7ccccc7c6)cc5c43)cc2C(F)(F)F)CC1 [Torin1],phosphorylation of 4EBP1 during HCMV infection,4EBP1,substantially blocked
same,phosphorylation of rpS6 in MCMV-infected MEFs,rpS6,completely inhibited
